Where two headings read alike, the source gives them in different places.
Legend:
[1] = system: primary multiple myeloma blast cells; experiment: FACS cytotoxicity assay, autologous T cell-mediated killing of primary multiple myeloma blast cells; type: cell-based, human; details: for EC50: read-out: MM Lysis EC50
Experimental: In order to monitor the specific killing of multiple myeloma cells by flow cytometry, bone marrow mononuclear cells (BMMC) from multiple myeloma patients were plated on human stromal cells (HS5) and rested overnight at 37 C. Separately, matching patient peripheral blood mononuclear cells (PBMC) were thawed and cultured in supplemented RPMI media at 1×10^6 cells/mL overnight at 37° C. in order to enrich for lymphocytes by depleting adherent cells. The next day, BMMC were co-incubated with adherent cell-depleted naïve PBMC on stromal cells (HS5) and a serial 10× dilution of BCMA×CD3 bispecific or 1-arm CD3 isotype control (starting concentration 66.7 nM) at 37° C. Cells were removed from cell culture plates at day 3, 4 or 7 and analyzed by FACS. For the assessment of specificity of killing, multiple myeloma cells were gated as single, live, CD90 negative (to exclude stromal cells), CD2 negative, CD56 positive. CD45 was low on multiple myeloma cells in most samples except MM455. Percent of live target cells was reported for the calculation of adjusted survival as follows: Adjusted survival=(R1/R2)*100, where R1=% live target cells in the presence of antibody, and R2=% live target cells in the absence of test antibody.
T cells were gated as CD2 positive, CD56 negative and either CD4 or CD8 positive. T cell activation was reported as the percent of CD25+CD4 or CD8 T cells out of total CD4 or CD8 T cells.

[2] = system: BCMA+ OPM-2-luciferase tumors; experiment: Xenogenic tumor model, i.v. OPM-2-luciferase in PBMC-engrafted NSG mice, bioluminescence (Example 15); type: in vivo, mouse; details: 0.4 mg/kg; for tumor burden: three doses; for Radiance [p/s/cm2^2/sr] 5 days post-implantation (mean ± SEM) / Radiance [p/s/cm2^2/sr] 11 days post-implantation (mean ± SEM) / Radiance [p/s/cm2^2/sr] 20 days post-implantation (mean ± SEM): before first dose (day 21)
Experimental: (§1) To determine the in vivo efficacy of anti-BCMA×anti-CD3 bispecific antibodies (Abs), a xenogenic tumor study was performed. On day 0, immunodeficient NOD.Cg-Prkdc^scidII2rg^tm1Wjl/SzJ (NSG) mice were intravenously administered 2×10^6 BCMA^+ OPM-2 human multiple myeloma tumor cells that were engineered to also express firefly luciferase (OPM-2-luciferase cells). On day 10, the mice were intraperitoneally injected with 4×10^6 human peripheral blood mononuclear cells (PBMC) from a normal, healthy donor. […] The mice were administered these Abs twice more on days 25 and 28, for a total of three doses. Tumor growth was assessed through day 61 by measuring tumor bioluminescence (BLI) in anesthetized animals. As a positive control, a group of mice (n=5) was given only OPM-2-luciferase cells, but not PBMC or antibody.
as §1, with “Implantation and measurement” for “To determine the in vivo efficacy”, “of” for “of anti-BCMA×anti-CD3 bispecific antibodies (Abs), a”, “tumors:” for “tumor study was performed.”, “NOD.Cg-Prkdc^scidII2rg^tm1Wkl/SzJ” for “NOD.Cg-Prkdc^scidII2rg^tm1Wjl/SzJ”
Measurement of xenogenic tumor growth: BLI imaging was used to measure tumor burden. Mice were injected IP with 150 mg/kg of the luciferase substrate D-luciferin suspended in PBS. Five minutes after this injection, BLI imaging of the mice was performed under isoflurane anesthesia using the Xenogen IVIS system. Image acquisition was carried out with the field of view at D, subject height of 1.5 cm, and medium binning level with automatic exposure time determined by the Living Image Software. BLI signals were extracted using Living Image software: regions of interest were drawn around each tumor mass and photon intensities were recorded as p/s/cm2/sr.

[3] = system: patients with relapsed or refractory multiple myeloma; experiment: Phase 1/2 clinical study of REGN5458 monotherapy; details: for Complete response (CR) or stringent CR (sCR) / Overall response rate (ORR) / Partial response (PR) / Very good partial response (VGPR): preliminary results
[4] = Sample MM2, newly diagnosed, E:T 1.4, 7 days
[5] = Sample MM369, newly diagnosed, E:T 0.3, 3 days
[6] = Sample MM453, newly diagnosed, E:T 2.4, 3 days
[7] = Sample MM455, progression, treated, E:T 0.4, 3 days
[8] = Dose Levels 1, 2, 3 (3, 6, 12 mg; n = 24)
[9] = Dose Levels 4, 5 (24, 48 mg; n = 17)
[10] = patients with marrow plasmacytosis <50%

Substance: REGN5459: anti-BCMA×anti-CD3 bispecific antibody: mAb21581 BCMA heavy chain, mAb7221G20 CD3 heavy chain and common light chain; SEQ ID NOs 126, 128, 129
- EC50 ([1]; Sample MM2, E:T 1.4, 7 days): 7.24 nM
- % MM lysis at 66 nM [1, 4]: 85%
- EC50 ([1]; Sample MM369, E:T 0.3, 3 days): 0.496 nM
- % MM lysis at 66 nM [1, 5]: 94%
- EC50 ([1]; Sample MM453, E:T 2.4, 3 days): 1.19 nM
- % MM lysis at 66 nM [1, 6]: 80%
- EC50 ([1]; Sample MM455, E:T 0.4, 3 days): 79.4 nM
- % MM lysis at 66 nM [1, 7]: 52%
- Radiance [p/s/cm2^2/sr] 26 days post-implantation (mean ± SEM) [2]: 1.28E+06 ± 7.36E+05 p/s/cm2^2/sr
- Radiance [p/s/cm2^2/sr] 31 days post-implantation (mean ± SEM) [2]: 1.98E+06 ± 1.36E+06 p/s/cm2^2/sr
- Radiance [p/s/cm2^2/sr] 34 days post-implantation (mean ± SEM) [2]: 4.24E+06 ± 3.69E+06 p/s/cm2^2/sr
- Radiance [p/s/cm2^2/sr] 38 days post-implantation (mean ± SEM) [2]: 3.21E+06 ± 2.52E+06 p/s/cm2^2/sr
- Radiance [p/s/cm2^2/sr] 40 days post-implantation (mean ± SEM) [2]: 3.84E+06 ± 3.34E+06 p/s/cm2^2/sr
- Radiance [p/s/cm2^2/sr] 47 days post-implantation (mean ± SEM) [2]: 7.34E+05 ± 2.62E+04 p/s/cm2^2/sr
- Radiance [p/s/cm2^2/sr] 54 days post-implantation (mean ± SEM) [2]: 6.41E+05 ± 5.96E+04 p/s/cm2^2/sr
- Radiance [p/s/cm2^2/sr] 61 days post-implantation (mean ± SEM) [2]: 6.03E+05 ± 5.29E+04 p/s/cm2^2/sr
- tumor burden [2]: reduced tumor burdens to background levels in the majority of animals
- Radiance [p/s/cm2^2/sr] 5 days post-implantation (mean ± SEM) [2]: 5.09E+05 ± 3.56E+04 p/s/cm2^2/sr
- Radiance [p/s/cm2^2/sr] 11 days post-implantation (mean ± SEM) [2]: 6.45E+05 ± 2.39E+04 p/s/cm2^2/sr
- Radiance [p/s/cm2^2/sr] 20 days post-implantation (mean ± SEM) [2]: 2.13E+06 ± 1.69E+05 p/s/cm2^2/sr

Substance: REGN5458: anti-BCMA×anti-CD3 bispecific antibody: mAb21581 BCMA heavy chain, mAb7221G CD3 heavy chain and common light chain; SEQ ID NOs 126, 127, 129
- EC50 ([1]; Sample MM2, E:T 1.4, 7 days): 0.747 nM
- % MM lysis at 66 nM [1, 4]: 88%
- % MM lysis at 66 nM [1, 5]: 96%
- EC50 ([1]; Sample MM453, E:T 2.4, 3 days): 0.0989 nM
- % MM lysis at 66 nM [1, 6]: 82%
- EC50 ([1]; Sample MM455, E:T 0.4, 3 days): 3.67 nM
- % MM lysis at 66 nM [1, 7]: 63%
- Complete response (CR) or stringent CR (sCR) ([3]; Dose Level 6 (96 mg; n = 8)): 0% (0)
- Overall response rate (ORR) ([3]; Dose Level 6 (96 mg; n = 8)): 63% (5)
- Partial response (PR) ([3]; Dose Level 6 (96 mg; n = 8)): 0% (0)
- Very good partial response (VGPR) ([3]; Dose Level 6 (96 mg; n = 8)): 63% (5)
- Complete response (CR) or stringent CR (sCR) [3, 8]: 21% (5)
- Overall response rate (ORR) [3, 8]: 29% (7)
- Partial response (PR) [3, 8]: 4% (1)
- Very good partial response (VGPR) [3, 8]: 4% (1)
- Complete response (CR) or stringent CR (sCR) [3, 9]: 18% (3)
- Overall response rate (ORR) [3, 9]: 41% (7)
- Partial response (PR) [3, 9]: 0% (0)
- Very good partial response (VGPR) [3, 9]: 24% (4)
- objective response rate (ORR) ([3]; dose level 6): 62.5%
- objective response rate (ORR) ([3]; dose levels 1 to 3): 29.2%
- objective response rate (ORR) ([3]; dose levels 4 and 5): 41.2%
- observed median duration of response ([3]; human, in vivo): 6.01 months
- complete response (CR) or stringent CR ([3]; of responders): 42.1%
- responders achieving at least a very good partial response (VGPR) ([3]; of responders): 95%
- responders with DOR ≥8 months ([3]; of responders): 36.8%
- responders with duration of response (DOR) ≥4 months ([3]; of responders): 63.2%
- ORR ([3]; patients with extramedullary plasmacytomas (EMP)): 14.3%
- ORR [3, 10]: 71.4%
- stringent complete response [3, 10]: 35.7%
- very good partial response [3, 10]: 35.7%
- ORR ([3]; patients with marrow plasmacytosis ≥50%): 9.1%
- ORR ([3]; patients without EMP): 45%
- complete response or stringent complete response ([3]; patients without EMP): 20%
- very good partial response ([3]; patients without EMP): 22.5%
- responders receiving ongoing treatment ([3]; to date): 74%
- Radiance [p/s/cm2^2/sr] 26 days post-implantation (mean ± SEM) [2]: 1.73E+06 ± 8.69E+05 p/s/cm2^2/sr
- Radiance [p/s/cm2^2/sr] 31 days post-implantation (mean ± SEM) [2]: 3.50E+06 ± 2.42E+06 p/s/cm2^2/sr
- Radiance [p/s/cm2^2/sr] 34 days post-implantation (mean ± SEM) [2]: 4.85E+06 ± 3.24E+06 p/s/cm2^2/sr
- Radiance [p/s/cm2^2/sr] 38 days post-implantation (mean ± SEM) [2]: 5.30E+06 ± 3.44E+06 p/s/cm2^2/sr
- Radiance [p/s/cm2^2/sr] 40 days post-implantation (mean ± SEM) [2]: 5.06E+06 ± 3.36E+06 p/s/cm2^2/sr
- Radiance [p/s/cm2^2/sr] 47 days post-implantation (mean ± SEM) [2]: 7.76E+05 ± 7.85E+04 p/s/cm2^2/sr
- Radiance [p/s/cm2^2/sr] 54 days post-implantation (mean ± SEM) [2]: 5.78E+05 ± 1.15E+05 p/s/cm2^2/sr
- Radiance [p/s/cm2^2/sr] 61 days post-implantation (mean ± SEM) [2]: 5.23E+05 ± 4.10E+04 p/s/cm2^2/sr
- tumor burden [2]: reduced tumor burdens to background levels in the majority of animals
- Radiance [p/s/cm2^2/sr] 5 days post-implantation (mean ± SEM) [2]: 5.87E+05 ± 2.40E+04 p/s/cm2^2/sr
- Radiance [p/s/cm2^2/sr] 11 days post-implantation (mean ± SEM) [2]: 6.19E+05 ± 4.39E+04 p/s/cm2^2/sr
- Radiance [p/s/cm2^2/sr] 20 days post-implantation (mean ± SEM) [2]: 1.81E+06 ± 2.37E+05 p/s/cm2^2/sr

From patent US11919965B2, “Methods of treating multiple myeloma with bispecific anti-BCMA x anti-CD3 antibodies” (Regeneron Pharmaceuticals, Inc., priority 2019, dated 2024)
